Source: patent US8138191B2, “Inhibitor compounds and cancer treatment methods” (Critical Outcome Technologies Inc., priority 2007, dated 2012)
pIC50: −log10 of the molar value.

What was measured:
A549 = experiment: in vitro IC50 against cancer cell lines, A549; type: cell-based; conditions: Homo sapiens, 72 h; A549, NSCLC, 3 days
[1] = test system: total Akt protein in DMS-114 cells; experiment: Total Akt by western blot analysis, DMS-114; type: cell-based, human; conditions: DMS-114, 250 nM, after 24 hrs
Experimental: Cell viability was determined at 24, 48, and 96 hrs by the trypan exclusion method. Whole cell lysates were prepared using standard procedures and fifty micrograms of lysate protein was separated on SDS-PAGE gels and analyzed by western blotting.
Cell viability was determined at 24, 48, and 96 h by the trypan exclusion method. Whole cell lysates were prepared using standard procedures and 50 μg of lysate protein was separated on SDS-PAGE gels and analyzed by western blotting.

[2] = test system: A549, H460, DMS114 and SHP77 cells; experiment: Western blot of total mTOR, mTOR phospho-Ser2448/Ser2481 and Akt phospho-Thr308; type: cell-based, human; conditions: 4 h
DMS114 cells = experiment: Proliferation with anti-cancer agents plus COTI-2, DMS114; type: cell-based, human
HL-60 = experiment: Flow cytometric analysis of cell death (Annexin V/PI), HL-60; type: cell-based, human; conditions: HL-60, 200 nM
Experimental: All cell lines were grown and exposed to various concentrations of COTI-2 or vehicle only control and the percentage of dead or dying cells were determined 24 and 48 h post-exposure by Annexin V and propidium iodide.
HL-60 (human promyelocytic leukemia) cells were grown as non-adherent cells in flasks in RPMI 1640 medium supplemented with 10% FBS. H226 (human non-small cell lung cancer) cells were grown in Eagle's MEM supplemented with 10% FBS. Both cell lines were obtained from the American Type Culture Collection (ATCC)(Rockville, Md.) and maintained at 37° C. in a humidified 5% CO2 atmosphere.
Cells were plated in 25-cm^2 flasks and treated with COTI-2 (0-100 μM) added from a stock DMSO/DMEM solution such that DMSO concentrations never exceeded 0.5%. Control cells were treated with stock DMSO/DMEM. […] Resuspended cells (100 μl) were incubated in the dark with 10 μl propidium iodide (PI, 50 ng per ml; Sigma, St. Louis, Mo.) plus Annexin V-FITC (25 ng per ml, green fluorescence; BD Biosciences, Mississauga, Ontario). […] Samples were analyzed for combined Annexin V/PI staining (to assess dead plus apoptotic cells) using a Beckman Coulter EPCS XL-MCL flow cytometer (Beckman Coulter, Hileah, Fla.) and the data were analyzed with CellQuest software.

in vivo = conditions: both, rat, in vivo
Description: Pharmacokinetic studies in animal models provide valuable information that enables prediction of metabolism in humans. There are a large variety of animal models that allow for the pharmacokinetic evaluation of compounds by providing information on serum, plasma, and tissue levels. […] As a result, it is important to keep this phenomenon in mind during extrapolations from animal to human metabolism. An initial pharmacokinetic assessment of COTI-2, administered both intravenously and orally, in its parent formulation and as both an oxalate and tartrate salt were evaluated in rats.
A single oral or IV dose of the COTI-2 free-base or the aforementioned salt forms was administered to groups of male and female rats and blood samples collected and processed at several time-points post-treatment.

CYP2C8 = target: T1, CYP2C8 (Homo sapiens, UniProt P10632); experiment: in vitro; conditions: both
T1 sequence (P10632 1-490): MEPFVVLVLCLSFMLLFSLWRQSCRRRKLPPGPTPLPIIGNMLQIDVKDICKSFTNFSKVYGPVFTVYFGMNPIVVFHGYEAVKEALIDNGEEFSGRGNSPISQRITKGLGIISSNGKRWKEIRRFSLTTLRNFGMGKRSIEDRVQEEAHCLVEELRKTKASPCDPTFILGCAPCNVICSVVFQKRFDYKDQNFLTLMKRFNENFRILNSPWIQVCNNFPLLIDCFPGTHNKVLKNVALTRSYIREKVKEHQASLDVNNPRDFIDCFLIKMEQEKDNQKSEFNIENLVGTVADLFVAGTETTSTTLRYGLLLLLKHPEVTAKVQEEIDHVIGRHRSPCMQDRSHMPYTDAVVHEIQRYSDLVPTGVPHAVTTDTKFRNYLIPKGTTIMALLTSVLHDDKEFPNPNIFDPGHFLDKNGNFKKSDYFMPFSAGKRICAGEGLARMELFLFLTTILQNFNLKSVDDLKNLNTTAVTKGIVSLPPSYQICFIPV

cleaved caspases 3 and 9 = experiment: Cleaved caspase 3 and 9 by western blot after COTI-219; type: cell-based, human; conditions: 12 h incubation, dose-dependent increase
Experimental: Cell viability assays were performed 24 to 48 h following incubation with COTI-219 by the trypan blue exclusion method using a Beckman-Coulter Vi-CELL XR 2.03 automated cell counter. Routine laboratory methods were employed for the production of cellular lysates, protein quantitation, SDS-PAGE and western blotting. All antibodies were obtained from Cell Signaling (Erk1/2 #4695, Ras #3965, CDK2 #2546, PKCalpha #2056, EGFR #2232, and ERBB2 #2165).
In lung cancer, oncogenic Ras exerts anti-apoptotic effects, in part by up-regulating the multi-functional PKB/AKT kinase. Activated PKB/AKT phosphorylates and inhibits caspase 9 activation. In order to determine whether caspase 9 activation mediates COTI-219 apoptosis, cells were incubated for 12 h with vehicle or increasing concentrations of COTI-219 and the expression levels of cleaved caspases 3 and 9 were determined. There was a dose-dependent increase in the levels of both cleaved caspases, peaking at 0.5 μM of COTI-219. Beyond this concentration, activated caspase 9 was not detectable and there was a decline in cleaved caspase 3.

SMILES	pIC50 (A549)	total Akt protein [1]	PKB/Akt phospho-Thr308 levels ([2]; A549 cells)	mTOR phospho-Ser2448 level ([2]; SHP77 cells)	reduction of proliferation as a single agent (DMS114 cells; DMS114, 31 nM)	reduction of proliferation as a single agent (DMS114 cells; DMS114, 73 nM)	induction of death (HL-60; 24 h)	induction of death (HL-60; 48 h)	bioavailability (in vivo)	Tmax (in vivo; po)	clearance (CL) from plasma, fold higher than the oxalate and tartrate formulations (in vivo; po)	rate of absorption (Ka), fold higher than the other formulations (in vivo; po)	inhibition at 15 min, 10 µM (CYP2C8; human liver microsomes, pH 7.4, probe paclitaxel (10 µM))	inhibition at 15 min, 10 µM (CYP2C8; liver microsomes, pH 7.4, probe paclitaxel)	concentration at which levels of cleaved caspases 3 and 9 peak (cleaved caspases 3 and 9)
S=C(N/N=C1/CCCc2cccnc21)N1CCN(c2ccccn2)CC1 [COTI-2]	5.20	decreased	decreased	reduced	25%	25%	greater than 30%	greater than 70%	17.7%	4 h	approximately 2 fold	approximately 3 fold	10%	< 50%	–
CN1CCN(C(=S)NN=C2c3ncccc3-c3cccnc32)CC1 [COTI-219]	–	–	–	–	–	–	–	–	–	–	–	–	–	–	0.5 µM
